Measurements: ChEMBL document CHEMBL5154769, “Discovery of the First-in-Class Agonist-Based SOS1 PROTACs Effective in Human Cancer Cells Harboring Various KRAS Mutations” (J Med Chem, 2022)
The source made the active and inactive calls. No cut-off for these calls is given here.

Tests used:
[1] = target: T1, von Hippel-Lindau disease tumor suppressor/Son of sevenless homolog 1 (Homo sapiens, UniProt Q07889+P40337); assay: Protac activity at VHL/SOS1 in human NCI-H358 cells assessed as SOS1 protein degradation at 1 uM and measured after 4 to 24 hr by western blot analysis; assay type: cell-based; settings: time 4-24 hrs
T1 sequence (P40337 whole entry, looked up): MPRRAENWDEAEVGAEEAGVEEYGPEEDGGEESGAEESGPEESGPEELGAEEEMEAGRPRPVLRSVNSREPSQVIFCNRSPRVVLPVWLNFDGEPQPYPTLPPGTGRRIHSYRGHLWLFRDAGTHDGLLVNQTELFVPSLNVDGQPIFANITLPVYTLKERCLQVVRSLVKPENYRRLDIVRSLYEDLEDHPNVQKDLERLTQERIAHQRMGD
T1 sequence (Q07889 whole entry, looked up): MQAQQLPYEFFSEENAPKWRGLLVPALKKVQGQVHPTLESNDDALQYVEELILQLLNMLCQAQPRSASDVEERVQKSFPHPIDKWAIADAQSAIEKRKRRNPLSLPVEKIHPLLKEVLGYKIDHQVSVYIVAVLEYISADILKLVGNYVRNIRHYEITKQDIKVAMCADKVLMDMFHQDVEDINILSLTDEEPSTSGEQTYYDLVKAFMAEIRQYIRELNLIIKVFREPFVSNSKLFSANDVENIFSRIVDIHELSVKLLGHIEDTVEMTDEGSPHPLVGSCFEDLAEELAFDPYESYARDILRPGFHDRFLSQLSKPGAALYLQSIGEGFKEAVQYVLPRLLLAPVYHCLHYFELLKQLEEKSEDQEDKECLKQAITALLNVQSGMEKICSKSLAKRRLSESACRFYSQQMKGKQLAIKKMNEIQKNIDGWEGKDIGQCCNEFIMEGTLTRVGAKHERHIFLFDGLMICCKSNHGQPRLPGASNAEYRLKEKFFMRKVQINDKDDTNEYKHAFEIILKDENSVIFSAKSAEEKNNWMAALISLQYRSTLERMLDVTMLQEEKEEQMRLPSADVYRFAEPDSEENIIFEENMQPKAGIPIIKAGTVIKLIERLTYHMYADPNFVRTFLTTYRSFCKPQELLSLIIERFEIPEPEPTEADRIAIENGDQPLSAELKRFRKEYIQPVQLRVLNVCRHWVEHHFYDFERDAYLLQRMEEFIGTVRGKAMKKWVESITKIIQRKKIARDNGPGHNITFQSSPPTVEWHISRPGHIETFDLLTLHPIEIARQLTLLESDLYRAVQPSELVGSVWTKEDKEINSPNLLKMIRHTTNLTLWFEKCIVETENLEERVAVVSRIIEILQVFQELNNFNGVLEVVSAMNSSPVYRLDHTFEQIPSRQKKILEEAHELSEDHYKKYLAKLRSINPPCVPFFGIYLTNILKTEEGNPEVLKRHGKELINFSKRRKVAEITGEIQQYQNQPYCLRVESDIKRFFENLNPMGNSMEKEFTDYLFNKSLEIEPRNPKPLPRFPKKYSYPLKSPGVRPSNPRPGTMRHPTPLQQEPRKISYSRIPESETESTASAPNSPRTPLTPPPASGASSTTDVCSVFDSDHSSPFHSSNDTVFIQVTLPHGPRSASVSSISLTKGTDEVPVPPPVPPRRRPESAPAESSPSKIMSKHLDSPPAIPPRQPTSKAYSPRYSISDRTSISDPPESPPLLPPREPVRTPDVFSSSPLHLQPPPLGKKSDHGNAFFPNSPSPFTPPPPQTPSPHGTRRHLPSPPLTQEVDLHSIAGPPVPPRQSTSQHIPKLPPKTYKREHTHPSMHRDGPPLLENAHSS

[2] = Effect of compound on human ASPC1 cells harboring KRAS G12D mutant assessed as inhibition of ERK phosphorylation incubated for 24 hr by Western blot analysis; assay type: functional, cell-based; settings: ASPC1, 24 h
[3] = Cmax in BALB/c mouse at 10 mg/kg, ip measured after 24 hrs by LC-MS/MS analysis; assay type: ADME, organism-based; parameters: dose 10 mg/kg, time 24 hrs, route ip; settings: in vivo
[4] = target: T2, von Hippel-Lindau disease tumor suppressor/Son of sevenless homolog 1 (Homo sapiens, UniProt Q07889+P40337, G12D); assay: Protac activity at VHL/SOS1 in human SK-LU-1 cells harboring KRAS G12D mutant assessed as SOS1 protein degradation incubated for 24 hr by Western blot analysis; assay type: cell-based
T2 sequence (P40337 whole entry, looked up, stated change not applied): as the sequence (P40337 whole entry, looked up) above
T2 sequence (Q07889 whole entry, looked up, stated change not applied): as the sequence (Q07889 whole entry, looked up) above

[5] = target: T2, von Hippel-Lindau disease tumor suppressor/Son of sevenless homolog 1; assay: Protac activity at VHL/SOS1 in human ASPC1 cells harboring KRAS G12D mutant assessed as SOS1 protein degradation incubated for 24 hr by Western blot analysis; assay type: cell-based
[6] = Toxicity in BALB/c nude mouse xenografted with human NCI-H358 cells assessed as effect on body weight at 10 to 20 mg/kg/day, ip for 21 days and measured every 3 day; assay type: organism-based; settings: in vivo, 504 h, dose 10-20 mg/kg/day, time 21 day
Mus musculus = assay: In vivo inhibition of phosphorylated ERK level in BALB/c nude mouse xenografted with human NCI-H358 cells at 20 to 50 mg/kg, IT incubated for 21 days by immunohistochemistry analysis; assay type: functional, organism-based; settings: dose 20-50 mg/kg, time 21.0 day
[7] = AUClast in BALB/c mouse at 10 mg/kg, ip measured after 24 hrs by LC-MS/MS analysis; assay type: ADME, organism-based; parameters: dose 10 mg/kg, time 24 hrs, route ip; settings: in vivo
[8] = target: T1, von Hippel-Lindau disease tumor suppressor/Son of sevenless homolog 1; assay: Protac activity at VHL/SOS1 in human ASPC1 cells assessed as SOS1 protein degradation at 1 uM incubated measured after 16 hr by western blot analysis; assay type: cell-based
[9] = Half life in BALB/c mouse at 10 mg/kg, ip measured after 24 hrs by LC-MS/MS analysis; assay type: ADME, organism-based; settings: in vivo
Homo sapiens = species: Homo sapiens; assay: Binding affinity to SOS1/VCB E3 ligase (unknown origin) assessed as ternary complex formation by measuring hook effect incubated for 1 hr by HTRF assay
HEK-293T = assay: Cytotoxicity against human HEK-293T cells assessed as cell growth inhibition incubated for 7 days by CellTiter-Glo 3D cell viability assay; assay type: toxicity, cell-based; settings: 168 h, time 7 day
[10] = target: von Hippel-Lindau disease tumor suppressor/Son of sevenless homolog 2 (Homo sapiens) (UniProt P40337+Q07890); assay: Protac activity at VHL/SOS2 in human NCI-H358 cells assessed as SOS2 protein degradation at 9.8 to 2500 nM incubated for 24 hr by Western blot analysis; assay type: cell-based; settings: dose 9.8-2500 nM, DDE = dose-dependent effect
[11] = target: von Hippel-Lindau disease tumor suppressor/Son of sevenless homolog 1 (Homo sapiens, UniProt Q07889+P40337, G12V); assay: Protac activity at VHL/SOS1 in human SW-620 cells harboring KRAS G12V mutant assessed as SOS1 protein degradation incubated for 24 hr by Western blot analysis; assay type: cell-based
Chain of von Hippel-Lindau disease tumor suppressor/Son of sevenless homolog 1 (Homo sapiens, UniProt Q07889+P40337, G12V) (P40337 whole entry, looked up, stated change not applied): as the sequence (P40337 whole entry, looked up) above
Chain of von Hippel-Lindau disease tumor suppressor/Son of sevenless homolog 1 (Homo sapiens, UniProt Q07889+P40337, G12V) (Q07889 whole entry, looked up, stated change not applied): as the sequence (Q07889 whole entry, looked up) above

Cc1cc(Cn2c(N3CC4(CNC4)C3)nc3c(N4CCN(CCCCCCCCC(=O)N[C@H](C(=O)N5C[C@H](O)C[C@H]5C(=O)N[C@@H](C)c5ccc(-c6scnc6C)cc5)C(C)(C)C)CC4)cc(Cl)cc32)cc(C)c1F
Activity [1]: Active | IC50 [2]: 72.3 nM | Cmax [3]: 1220 ng/mL | DC50 [4]: 104 nM | DC50 [5]: 119 nM | Activity [6]: Non-Toxic | Activity (Mus musculus): Active | AUC(0-t) at 24 h [7]: 3900 ng·h/mL | Activity [8]: Active | half-life [9]: 8.64 h | Activity (Homo sapiens): Active | Activity (HEK-293T): Non-Toxic | Activity [10]: Dde | DC50 [11]: 125 nM
